In US20260262643A1, “HERBICIDAL BENZOXAZINES” (FMC CORPORATION, priority 2022, published 2026):

Tests used:
barnyardgrass [1] = experiment: Test C preemergence; format: in vivo, Echinochloa crusgalli
In short: (§1)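 Seeds in loam–sand blend received preemergence directed soil spray of test chemicals in non-phytotoxic solvent with surfactant; postemergence treatment was applied at one- to two-leaf stage (2–10 cm). After 10 days in greenhouse, injury rated visually versus untreated controls, 0 (no effect) to 100 (complete control).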

blackgrass [2] = experiment: Test C preemergence; format: in vivo, Alopecurus myosuroides
In short: as §1

corn [3] = experiment: Test C preemergence; format: in vivo, Zea mays
In short: as §1

green foxtail [4] = experiment: Test C preemergence; format: in vivo, Setaria viridis
In short: as §1

kochia [5] = experiment: Test C preemergence; format: in vivo, Bassia scoparia
In short: as §1

oat, wild [6] = experiment: Test C preemergence; format: in vivo, Avena fatua
In short: as §1

pigweed, palmer [7] = experiment: Test C preemergence; format: in vivo, Amaranthus palmeri
In short: as §1

ragweed [8] = experiment: Test C preemergence; format: in vivo, Ambrosia artemisiifolia
In short: as §1

ryegrass, Italian [9] = experiment: Test C preemergence; format: in vivo, Lolium multiflorum
In short: as §1

soybean [10] = experiment: Test C preemergence; format: in vivo, Glycine max
In short: as §1

wheat [11] = experiment: Test C preemergence; format: in vivo, Triticum aestivum
In short: as §1

barnyardgrass [12] = experiment: Test C postemergence; format: in vivo, Echinochloa crusgalli; details: 10 days, 0 to 100 scale (0 no effect, 100 complete control)
In short: as §1

blackgrass [13] = experiment: Test C postemergence; format: in vivo, Alopecurus myosuroides; details: 10 days, 0 to 100 scale (0 no effect, 100 complete control)
In short: as §1

corn [14] = experiment: Test C postemergence; format: in vivo, Zea mays; details: 10 days, 0 to 100 scale (0 no effect, 100 complete control)
In short: as §1

green foxtail [15] = experiment: Test C postemergence; format: in vivo, Setaria viridis; details: 10 days, 0 to 100 scale (0 no effect, 100 complete control)
In short: as §1

kochia [16] = experiment: Test C postemergence; format: in vivo, Bassia scoparia; details: 10 days, 0 to 100 scale (0 no effect, 100 complete control)
In short: as §1

oat, wild [17] = experiment: Test C postemergence; format: in vivo, Avena fatua; details: 10 days, 0 to 100 scale (0 no effect, 100 complete control)
In short: as §1

pigweed, palmer [18] = experiment: Test C postemergence; format: in vivo, Amaranthus palmeri; details: 10 days, 0 to 100 scale (0 no effect, 100 complete control)
In short: as §1

ragweed [19] = experiment: Test C postemergence; format: in vivo, Ambrosia artemisiifolia; details: 10 days, 0 to 100 scale (0 no effect, 100 complete control)
In short: as §1

ryegrass, Italian [20] = experiment: Test C postemergence; format: in vivo, Lolium multiflorum; details: 10 days, 0 to 100 scale (0 no effect, 100 complete control)
In short: as §1

soybean [21] = experiment: Test C postemergence; format: in vivo, Glycine max; details: 10 days, 0 to 100 scale (0 no effect, 100 complete control)
In short: as §1

wheat [22] = experiment: Test C postemergence; format: in vivo, Triticum aestivum; details: 10 days, 0 to 100 scale (0 no effect, 100 complete control)
In short: as §1

galium = experiment: Test C postemergence; format: in vivo, Galium aparine; details: 10 days, 0 to 100 scale (0 no effect, 100 complete control)
In short: as §1

horseweed = experiment: Test C postemergence; format: in vivo, Erigeron canadensis; details: 10 days, 0 to 100 scale (0 no effect, 100 complete control)
In short: as §1

barnyardgrass [23] = experiment: Test D flooded paddy test; format: in vivo, Echinochloa crus-galli; details: 250 g ai/ha, applied to paddy water, visual rating after 13 to 14 days, scale 0 to 100 (0 no effect, 100 complete control)
In short: (§2)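 2-leaf plants; flood 3 cm above soil; compound dosed into paddy water; greenhouse 13–14 d; visual rating vs controls, 0–100 (100 = complete control); dash = not tested.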

ducksalad = experiment: Test D flooded paddy test; format: in vivo, Heteranthera limosa; details: 250 g ai/ha, applied to paddy water, visual rating after 13 to 14 days, scale 0 to 100 (0 no effect, 100 complete control)
In short: as §2

rice = experiment: Test D flooded paddy test; format: in vivo, Oryza sativa; details: 250 g ai/ha, applied to paddy water, visual rating after 13 to 14 days, scale 0 to 100 (0 no effect, 100 complete control)
In short: as §2

sedge, umbrella = experiment: Test D flooded paddy test; format: in vivo, Cyperus difformis; details: 250 g ai/ha, applied to paddy water, visual rating after 13 to 14 days, scale 0 to 100 (0 no effect, 100 complete control)
In short: as §2

[24] = 500 g ai/ha, preemergence, 0 to 100 scale (0 no effect, 100 complete control)
[25] = Preemergence, 125 g ai/ha, 0 to 100 scale, 0 no effect, 100 complete control

For `CCOC(=O)c1ncn(-c2ccc(C)c(C(=O)N3C[C@H](C)Oc4c(Cl)cccc43)c2)n1` [Compound 342], the “Barnyardgrass plant response rating” value (barnyardgrass [1]; [24]) was 60, the “Plant response rating, Barnyardgrass” value (barnyardgrass [1]; [25]) was 20 and the “Blackgrass plant response rating” value (blackgrass [2]; [24]) was 50. The “Plant response rating, Blackgrass” value (blackgrass [2]; [25]) was 20, the “Corn plant response rating” value (corn [3]; [24]) was 20 and the “Plant response rating, Corn” value (corn [3]; [25]) was 0. For the same molecule, the “Foxtail, Green plant response rating” value (green foxtail [4]; [24]) was 90, the “Plant response rating, Foxtail, Green” value (green foxtail [4]; [25]) was 40 and the “Kochia plant response rating” value (kochia [5]; [24]) was 0. For the same molecule, the “Plant response rating, Kochia” value (kochia [5]; [25]) was 0, the “Oat, Wild plant response rating” value (oat, wild [6]; [24]) was 80 and the “Plant response rating, Oat, Wild” value (oat, wild [6]; [25]) was 20. For the same molecule, the “Pigweed, Palmer plant response rating” value (pigweed, palmer [7]; [24]) was 70, the “Plant response rating, Pigweed, Palmer” value (pigweed, palmer [7]; [25]) was 30 and the “Ragweed plant response rating” value (ragweed [8]; [24]) was 20. The “Plant response rating, Ragweed” value (ragweed [8]; [25]) was 0, the “Ryegrass, Italian plant response rating” value (ryegrass, Italian [9]; [24]) was 80 and the “Plant response rating, Ryegrass, Italian” value (ryegrass, Italian [9]; [25]) was 70. For the same molecule, the “Soybean plant response rating” value (soybean [10]; [24]) was 10, the “Plant response rating, Soybean” value (soybean [10]; [25]) was 10 and the “Wheat plant response rating” value (wheat [11]; [24]) was 30. For the same molecule, the “Plant response rating, Wheat” value (wheat [11]; [25]) was 0, the “Plant response rating, Barnyardgrass” value (barnyardgrass [12]; 500 g ai/ha, postemergence) was 70 and the “Plant response rating, Barnyardgrass” value (barnyardgrass [12]; Postemergence, 125 g ai/ha) was 60. The “Plant response rating, Blackgrass” value (blackgrass [13]; 500 g ai/ha, postemergence) was 80, the “Plant response rating, Blackgrass” value (blackgrass [13]; Postemergence, 125 g ai/ha) was 60 and the “Plant response rating, Corn” value (corn [14]; 500 g ai/ha, postemergence) was 70. The “Plant response rating, Corn” value (corn [14]; Postemergence, 125 g ai/ha) was 70, the “Plant response rating, Foxtail, Green” value (green foxtail [15]; 500 g ai/ha, postemergence) was 90 and the “Plant response rating, Foxtail, Green” value (green foxtail [15]; Postemergence, 125 g ai/ha) was 80. The “Plant response rating, Kochia” value (kochia [16]; 500 g ai/ha, postemergence) was 60, the “Plant response rating, Kochia” value (kochia [16]; Postemergence, 125 g ai/ha) was 40 and the “Plant response rating, Oat, Wild” value (oat, wild [17]; 500 g ai/ha, postemergence) was 80. For the same molecule, the “Plant response rating, Oat, Wild” value (oat, wild [17]; Postemergence, 125 g ai/ha) was 70, the “Plant response rating, Pigweed, Palmer” value (pigweed, palmer [18]; 500 g ai/ha, postemergence) was 100 and the “Plant response rating, Pigweed, Palmer” value (pigweed, palmer [18]; Postemergence, 125 g ai/ha) was 90. For the same molecule, the “Plant response rating, Ragweed” value (ragweed [19]; 500 g ai/ha, postemergence) was 80, the “Plant response rating, Ragweed” value (ragweed [19]; Postemergence, 125 g ai/ha) was 50 and the “Plant response rating, Ryegrass, Italian” value (ryegrass, Italian [20]; 500 g ai/ha, postemergence) was 70. For the same molecule, the “Plant response rating, Ryegrass, Italian” value (ryegrass, Italian [20]; Postemergence, 125 g ai/ha) was 70, the “Plant response rating, Soybean” value (soybean [21]; 500 g ai/ha, postemergence) was 90 and the “Plant response rating, Soybean” value (soybean [21]; Postemergence, 125 g ai/ha) was 100. The “Plant response rating, Wheat” value (wheat [22]; 500 g ai/ha, postemergence) was 80, the “Plant response rating, Wheat” value (wheat [22]; Postemergence, 125 g ai/ha) was 70 and the “Plant response rating, Galium” value (galium; 500 g ai/ha, postemergence) was 80. The “Plant response rating, Galium” value (galium; Postemergence, 125 g ai/ha) was 70, the “Plant response rating, Horseweed” value (horseweed; 500 g ai/ha, postemergence) was 50 and the “Plant response rating, Horseweed” value (horseweed; Postemergence, 125 g ai/ha) was 10. The “Plant response rating, Barnyardgrass (Flood)” value (barnyardgrass [23]) was 0, the “Plant response rating, Ducksalad (Flood)” value (ducksalad) was 10 and the “Plant response rating, Rice (Flood)” value (rice) was 15. For the same molecule, the “Plant response rating, Sedge, Umbrella (Flood)” value (sedge, umbrella) was 15.
